Results on 28 compounds are retold here after patent US10807993B2, “Dihydrochromene derivatives” (Sumitomo Dainippon Pharma Co., Ltd., priority 2018, dated 2020).

Data set [1] relates to HT-29 cells. Nature of the data set: Inhibition test for sphere formation assay of cancer cells. The class given is cell-based. The note with it: for IC50: sphere culture (ultra-low attachment, serum-free), 4 days, CellTiter-Glo, read-out: Sphere IC50 value (concentration for 50% inhibition of cell proliferation); for activity for inhibiting cell proliferation in the sphere culture condition: summary in words. The method, then:
Reliable methods established for measuring the self-renewal ability of cells which is one of the CSC's properties include a method for measuring the sphere-forming ability of cancer cells in non-adherent condition in the absence of serum (Cancer Res 65, 5506-5511 (2005)). HT-29 cells were available from American Type Culture Collection (ATCC). HT-29 cells were cultured at 37° C. under 5% CO2 using the McCoy's 5a medium containing 10% fetal bovine serum (FBS) and 1% penicillin/streptomycin. HT-29 cells were seeded in a 384 Well Black Clear Bottom Ultra-Low Attachment Microplate (Corning Cat. No. 3827) in an amount of 350-800 cells/well using the DMEM/F12 medium containing 2% B27 supplement (GIBCO), 20 ng/mL epidermal growth factor (EGF) (peprotech), 10 ng/mL basic fibroblast growth factor (bFGF) (peprotech), 5 μg/mL insulin (Sigma), and 1% penicillin/streptomycin. Each test compound was added into each well to adjust the final concentration of DMSO to 0.1%, and the cells were cultured for 4 days. The number of viable cells in each well was then measured with CellTiter-Glo™ Luminescent Cell Viability Assay (Promega) to calculate the concentration of each test compound for 50% inhibition of cell proliferation (Sphere IC50 value; […])
The experiment of Test 1 was performed for each compound of each Example. The concentration of each test compound for 50% inhibition of cell proliferation (Sphere IC50 value; μmol/L) is shown in the following Table.

Data set [2] addresses hERG (Homo sapiens (Human), UniProt Q12809). Nature of the data set: Test for evaluating hERG inhibition (QPatch HT, CHO cell strain stably expressing hERG). The note with it: for hERG/HT-29: hERG IC50 (Test 2) divided by HT-29 sphere IC50 (Test 1); for deviation between the concentration of inhibiting 50% cell proliferation and the concentration of inhibiting 50% hERG current: summary in words of hERG/HT-29.
Procedure: To a cultured CHO cell strain which stably expresses hERG was added each test compound to adjust the final concentration of DMSO to 0.0135 to 0.5%. The hERG current was measured with QPatch HT (Sophion Inc.), and the concentration at which 50% of the hERG current was inhibited by each test compound (IC50 value; μM) was calculated.
The compounds of Examples were tested according to Test 2. And, the hERG/HT-29 was calculated by dividing the compound concentration obtained in Test 2 (50% of the hERG current is inhibited) by the compound concentration obtained in Test 1 (50% of the proliferation of HT-29 cells is inhibited).

Where [3] appears, read: read-out: Binding inhibition (IC50, μM), concentration at which 50% of the hERG current was inhibited, CHO cells stably expressing hERG, QPatch HT.

Read-outs that look alike come from different tables or passages of the source.

Sequence of hERG (Q12809 whole entry): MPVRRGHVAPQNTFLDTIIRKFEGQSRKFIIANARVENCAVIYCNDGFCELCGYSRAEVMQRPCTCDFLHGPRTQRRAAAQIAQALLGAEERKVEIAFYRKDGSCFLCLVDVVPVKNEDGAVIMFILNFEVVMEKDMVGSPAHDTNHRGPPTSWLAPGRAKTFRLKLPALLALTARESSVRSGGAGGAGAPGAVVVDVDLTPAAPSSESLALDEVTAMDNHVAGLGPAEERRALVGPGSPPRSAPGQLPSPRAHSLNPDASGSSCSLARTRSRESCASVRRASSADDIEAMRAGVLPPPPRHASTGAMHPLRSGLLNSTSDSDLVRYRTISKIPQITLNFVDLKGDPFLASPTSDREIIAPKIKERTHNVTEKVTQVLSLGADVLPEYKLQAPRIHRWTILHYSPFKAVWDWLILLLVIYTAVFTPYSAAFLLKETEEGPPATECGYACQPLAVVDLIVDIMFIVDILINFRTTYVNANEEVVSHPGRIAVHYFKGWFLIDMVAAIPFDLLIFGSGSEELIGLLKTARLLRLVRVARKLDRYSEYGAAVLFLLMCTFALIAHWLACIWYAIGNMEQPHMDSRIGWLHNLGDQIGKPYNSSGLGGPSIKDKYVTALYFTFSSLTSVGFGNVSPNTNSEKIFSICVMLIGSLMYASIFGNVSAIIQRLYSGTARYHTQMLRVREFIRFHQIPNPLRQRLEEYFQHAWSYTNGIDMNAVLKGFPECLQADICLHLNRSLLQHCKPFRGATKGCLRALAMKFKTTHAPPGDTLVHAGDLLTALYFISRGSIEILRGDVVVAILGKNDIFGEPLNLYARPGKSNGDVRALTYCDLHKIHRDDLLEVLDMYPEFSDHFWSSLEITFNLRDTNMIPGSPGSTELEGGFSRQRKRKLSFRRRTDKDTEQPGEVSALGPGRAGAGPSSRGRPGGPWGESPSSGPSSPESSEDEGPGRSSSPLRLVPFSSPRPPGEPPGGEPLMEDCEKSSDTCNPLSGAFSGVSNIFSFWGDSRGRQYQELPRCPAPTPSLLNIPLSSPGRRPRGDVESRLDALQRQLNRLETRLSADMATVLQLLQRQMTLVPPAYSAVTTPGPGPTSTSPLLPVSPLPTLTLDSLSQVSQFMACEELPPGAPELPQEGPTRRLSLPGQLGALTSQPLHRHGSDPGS

With `Cc1nccn1CCN1CCC2(CC1)COC1c3cc(Cl)ccc3OC(C)(C)C1C2` (stereo not drawn) [Example 47], in data set [1], the IC50 is less than 10 nM and the “activity for inhibiting cell proliferation in the sphere culture condition” value is “potent activity”. For the same compound, in data set [2], the hERG/HT-29 was more than 190; the “deviation between the concentration of inhibiting 50% cell proliferation and the concentration of inhibiting 50% hERG current” value is “good deviation”. The IC50 in data set [2] (setting [3]) amounted to 1.9 µM.

Turning to `Cc1nc[nH]c1CN1CCC2(CC1)COC1c3cc(F)ccc3OC(C)(C)C1C2` (stereo not drawn) [Example 22], the IC50 in data set [1] was 240 nM; in data set [2] (setting [3]), 1.6 µM. This compound also returned a hERG/HT-29 in data set [2] of 6.67.

On to `Cc1nccn1CCN1CCC2(CC1)COC1c3cc(Cl)ccc3OC(C)(C)C1C2` (stereo not drawn) [Example 48], for which, in data set [1], the IC50 is less than 10 nM and the “activity for inhibiting cell proliferation in the sphere culture condition” value was “potent activity”. For the same compound, in data set [2], the hERG/HT-29 is more than 80; the “deviation between the concentration of inhibiting 50% cell proliferation and the concentration of inhibiting 50% hERG current” value is reported as “good deviation”. In data set [2] (setting [3]), the IC50 turned out to be 0.8 µM.

With `Cc1nccn1CC(=O)N1CCC2(CC1)COC1c3cccc(Cl)c3OC(C)(C)C1C2` (stereo not drawn) [Example 6], the values for the IC50 in data set [1] and in data set [2] (setting [3]) were 610 nM and less than 0.3 µM, respectively.

For the compound `Cc1nc[nH]c1CN1CCC2(CC1)COC1c3ccc(Cl)cc3OCC1C2` (single isomer, unassigned) [Example 64b], the IC50 in data set [1] is 50 nM; in data set [2] (setting [3]), less than 0.3 µM.

Consider `Cc1nc[nH]c1CN1CCC2(CC1)COC1c3ccc(Cl)cc3OC(C)(C)C1C2` (stereo not drawn) [Example 20], for which, in data set [1], the IC50 is less than 10 nM and the “activity for inhibiting cell proliferation in the sphere culture condition” value is “potent activity”. In data set [2], the hERG/HT-29 is more than 140; the “deviation between the concentration of inhibiting 50% cell proliferation and the concentration of inhibiting 50% hERG current” value was “good deviation”. For the same compound, the IC50 in data set [2] (setting [3]) was 1.4 µM.

On to `CC1(C)Oc2ccc(F)cc2C2OCC3(CCN(CCn4ccnc4)CC3)CC21` (stereo not drawn) [Example 39], for which, in data set [1], the IC50 is less than 10 nM and the “activity for inhibiting cell proliferation in the sphere culture condition” value is “potent activity”. For the same compound, in data set [2], the hERG/HT-29 is on record as more than 100; the “deviation between the concentration of inhibiting 50% cell proliferation and the concentration of inhibiting 50% hERG current” value is reported as “good deviation”. Besides, in data set [2] (setting [3]), the IC50 worked out at 1 µM.

In the case of `Cc1nccn1CCN1CCC2(CC1)COC1c3ccc(Cl)cc3OC(C)(C)C1C2` (stereo not drawn) [Example 49], in data set [1], the IC50 is less than 10 nM and the “activity for inhibiting cell proliferation in the sphere culture condition” value is “potent activity”. For the same compound, in data set [2], the hERG/HT-29 was more than 140; the “deviation between the concentration of inhibiting 50% cell proliferation and the concentration of inhibiting 50% hERG current” value is “good deviation”. Further, the IC50 in data set [2] (setting [3]) is 1.4 µM.

Turning to `CC1(C)Oc2ccc(Cl)cc2C2OCC3(CCN(CCn4ccnc4)CC3)CC21` (stereo not drawn) [Example 40], in data set [1], the IC50 was less than 10 nM and the “activity for inhibiting cell proliferation in the sphere culture condition” value was “potent activity”. In data set [2], the hERG/HT-29 is given as more than 140; the “deviation between the concentration of inhibiting 50% cell proliferation and the concentration of inhibiting 50% hERG current” value is listed as “good deviation”. In data set [2] (setting [3]), the IC50 turned out to be 1.4 µM.

In the case of `CC1(C)Oc2cc(Cl)ccc2C2OCC3(CCN(CCn4ccnc4)CC3)CC21` (stereo not drawn) [Example 42], in data set [1], the IC50 is less than 10 nM and the “activity for inhibiting cell proliferation in the sphere culture condition” value was “potent activity”. In data set [2], the hERG/HT-29 is reported as more than 140; the “deviation between the concentration of inhibiting 50% cell proliferation and the concentration of inhibiting 50% hERG current” value was “good deviation”. In addition, the IC50 in data set [2] (setting [3]) amounted to 1.4 µM.

`Cn1ccnc1CN1CCC2(CC1)COC1c3cc(Cl)ccc3OC(C)(C)C1C2` (stereo not drawn) [Example 36]: the IC50 in data set [1] came out at 40 nM.

In the case of `Cc1nccn1CCN1CCC2(CC1)COC1c3cc(Cl)ccc3OC(C)(C)C1C2` (stereo not drawn) [Example 46], in data set [2], the hERG/HT-29 is more than 120; the “deviation between the concentration of inhibiting 50% cell proliferation and the concentration of inhibiting 50% hERG current” value was “good deviation”. In data set [2] (setting [3]), the IC50 amounted to 1.2 µM.

Turning to `Cc1nccn1CC(=O)N1CCC2(CC1)COC1c3ccc(Cl)cc3OC(C)(C)C1C2` (stereo not drawn) [Example 5], the IC50 was 410 nM in data set [1] and less than 0.3 µM in data set [2] (setting [3]).

For the compound `Cc1nccn1CC(=O)N1CCC2(CC1)COC1c3cc(Br)ccc3OC(C)(C)C1C2` (stereo not drawn) [Example 7], the figures for the IC50 in data set [1] and in data set [2] (setting [3]) were 90 nM and less than 0.3 µM, respectively.

`Cc1nccn1CC(=O)N1CCC2(CC1)COC1c3cc(N=[N+]=[N-])ccc3OC(C)(C)C1C2` (stereo not drawn) [Example 10]: the IC50 in data set [1] is 240 nM; in data set [2] (setting [3]), less than 0.3 µM.

As to `CC1(C)Oc2cc(Cl)ccc2C2OCC3(CCN(CCn4ccnc4)CC3)CC21` (racemic) [Example 38, Racemate of (4′aR,10′bR)-8′-chloro-1-[2-(1H-imidazol-1-yl)ethyl]-5′,5′-dimethyl-4′a,10′b-dihydro-2′H,4′H,5′H-spiro[piperidine-4,3′-pyrano[3,2-c][1]benzopyran] and (4′aS,10′bS)-8′-chloro-1-[2-(1H-imidazol-1-yl)ethyl]-5′,5′-dimethyl-4′a,10′b-dihydro-2′H,4′H,5′H-spiro[piperidine-4,3′-pyrano[3,2-c][1]benzopyran]], the IC50 in data set [1] (Homo sapiens, 96 h) was less than 10 nM. For the same compound, in data set [2], the IC50 came out at 0.8 µM; the hERG/HT-29 was more than 80; the “deviation between the concentration of inhibiting 50% cell proliferation and the concentration of inhibiting 50% hERG current” value was “good deviation”.

With `CC1(C)Oc2ccc(Cl)cc2C2OCC3(CCN(C(=O)Cn4cnc(CF)c4)CC3)CC21` (stereo not drawn) [Example 16], in data set [1], the IC50 was 4400 nM.

For `Cc1nccn1CC(=O)N1CCC2(CC1)COC1c3cc(Cl)ccc3OC(C)(C)C1C2` (racemic) [Example 1, Racemate of 1-[(4′aS,10′bS)-9′-chloro-5′,5′-dimethyl-4′a,10′b-dihydro-2′H,4′H,5′H-spiro[piperidine-4,3′-pyrano[3,2-c][1]benzopyran]-1-yl]-2-(2-methyl-1H-imidazol-1-yl)ethan-1-one and 1-[(4′aR,10′bR)-9′-chloro-5′,5′-dimethyl-4′a,10′b-dihydro-2′H, 4′H, 5′H-spiro[piperidine-4,3′-pyrano[3,2-c][1]benzopyran]-1-yl]-2-(2-methyl-1H-imidazol-1-yl)ethan-1-one], the IC50 is 80 nM in data set [1] (Homo sapiens, 96 h) and less than 0.3 µM in data set [2].

As for `Cc1nc[nH]c1CN1CCC2(CC1)COC1c3cc(F)ccc3OC(C)(C)C1C2` (stereo not drawn) [Example 21], the IC50 in data set [1] stood at 210 nM; in data set [2] (setting [3]), 1.5 µM. This compound also displayed a hERG/HT-29 in data set [2] of 7.14.

As to `Cc1nc(CN2CCC3(CC2)COC2c4cc(Cl)ccc4OC(C)(C)C2C3)c[nH]1` (stereo not drawn) [Example 30], the IC50 is 2280 nM in data set [1] and 1.7 µM in data set [2] (setting [3]). The compound further had a hERG/HT-29 in data set [2] of 7.46.

Turning to `Cc1nccn1CCN1CCC2(CC1)COC1c3ccc(Cl)cc3OC(C)(C)C1C2` (stereo not drawn) [Example 51], in data set [1], the IC50 was less than 10 nM and the “activity for inhibiting cell proliferation in the sphere culture condition” value was “potent activity”. For the same compound, in data set [2], the hERG/HT-29 was more than 90; the “deviation between the concentration of inhibiting 50% cell proliferation and the concentration of inhibiting 50% hERG current” value is on record as “good deviation”. Besides, in data set [2] (setting [3]), the IC50 came to 0.9 µM.

As for `CC1(C)Oc2ccc(Cl)cc2C2OCC3(CCN(CCn4ccnc4CO)CC3)CC21` (stereo not drawn) [Example 53], in data set [1], the IC50 was less than 10 nM and the “activity for inhibiting cell proliferation in the sphere culture condition” value was “potent activity”.

For `Cc1nccn1CC(=O)N1CCC2(CC1)COC1c3cccc(Br)c3OC(C)(C)C1C2` (stereo not drawn) [Example 9], the results for the IC50 in data set [1] and in data set [2] (setting [3]) were 770 nM and less than 0.3 µM, respectively.

With `COC(=O)c1cn(CCN2CCC3(CC2)COC2c4cc(Cl)ccc4OC(C)(C)C2C3)cn1` (stereo not drawn) [Example 59], in data set [1], the IC50 is 980 nM.

As for `Cc1nc[nH]c1CN1CCC2(CC1)COC1c3cc(Cl)ccc3OC(C)(C)C1C2` (stereo not drawn) [Example 26], in data set [1], the IC50 is less than 10 nM and the “activity for inhibiting cell proliferation in the sphere culture condition” value is recorded as “potent activity”. In data set [2], the hERG/HT-29 is given as more than 60; the “deviation between the concentration of inhibiting 50% cell proliferation and the concentration of inhibiting 50% hERG current” value is listed as “good deviation”. In data set [2] (setting [3]), the IC50 turned out to be 0.6 µM.

In the case of `CC1(C)Oc2ccc(F)cc2C2OCC3(CCN(CCn4ccnc4CO)CC3)CC21` (stereo not drawn) [Example 52], in data set [1], the IC50 was less than 10 nM and the “activity for inhibiting cell proliferation in the sphere culture condition” value was “potent activity”.

With `CC1(C)Oc2cc(Cl)ccc2C2OCC3(CCN(CCn4ccnc4CCN)CC3)CC21` (stereo not drawn) [Example 62], the IC50 in data set [2] (setting [3]) was found to be 6.3 µM.

Regarding `CCc1nc(C)c(CN2CCC3(CC2)COC2c4cc(Cl)ccc4OC(C)(C)C2C3)[nH]1` (stereo not drawn) [Example 28], the IC50 in data set [1] was determined as 90 nM.
